Data from US12643861B2, “Crystalline form of fluvatinib or fluvatinib methanesulfonate and preparation method therefor” (CHONGQING PHARMACEUTICAL RESEARCH INSTITUTE CO., LTD, priority 2020, dated 2026).
Structures can show the parent of a compound that is named as a salt. Where two headings read alike, the source gives them in different places.

Columns and labels:
Type in all cases: physicochemical
[1] = Hydrothermal stability of the crystalline forms of fluvatinib mesylate, XRPD; conditions: Table 11
Method: The crystalline forms I, III, IV, V, VI, and VII of fluvatinib mesylate of the present disclosure were placed in harsh environments to investigate their stability. They were placed under high temperature and high humidity conditions: 25° C. 92.5% R.H for 7 days, 40° C. 75% R.H for 14 days, and 60° C. for 14 days, and then detected by XRPD.

[2] = Stability under high temperature and high humidity for half of a month or 3 months
[3] = Stability of crystalline form I of fluvatinib mesylate stirred in acetone, ethanol, ethyl acetate, XRPD; conditions: acetone or ethyl acetate, stirred 10 h at room temperature
Method: The crystalline form I of fluvatinib mesylate was stored in acetone, ethanol and ethyl acetate to investigate whether there was a crystal transformation.
3 parts of about 50 mg the crystalline form I of fluvatinib mesylate were weighed and respectively added to reaction flasks containing an appropriate amount of acetone, ethanol, or ethyl acetate solvent. The suspension samples were placed on magnetic stirrers, stirred for 10 h at room temperature, and filtered. The filter cake was dried at 40-50° C. with spinning under reduced pressure. The obtained dry samples were detected by XRPD.

[4] = Dynamic vapor sorption (DVS) hygroscopicity
Method: At the same time, the crystalline form I of fluvatinib mesylate was tested for dynamic hygroscopicity by DVS to detect water content. […] This indicates again that the crystalline form I of fluvatinib mesylate has good stability.
The crystalline form III of fluvatinib mesylate was tested for hygroscopicity under humidity conditions of 25° C., 0-90% RH, using a dynamic moisture tester a dynamic vapor sorption (DVS) analyzer.

[5] = Crystalline form stability on tableting and storage of tablets, XRPD; conditions: for crystal transformation during the process of preparing tablets: direct compression tablets, 30% crystalline form; for crystal transformation after the tablets being placed for 6 months: 40° C., 75% RH
Method: The formula amounts of the crystalline form of fluvatinib mesylate, anhydrous lactose and direct compression starch were mixed, and then mixed with magnesium stearate. The mixture was prepared into tablets by direct compression method, with each table weighed 200 mg.
The crystalline forms before and after being prepared into tablets and after the tablets being placed in 40° C., 75% RH environment for 6 months were detected by XRPD. The results are shown in FIGS. 19 and 20, wherein A, B, and C represent XRPD patterns of the crystalline form before and after being prepared into tablets and after the tablets being placed for 6 months.

[6] = Crystal transformation test of crystalline form I of fluvatinib stirred in solvents, XRPD; conditions: 40° C.
Method: The crystalline form I of fluvatinib was placed in an organic solvent and a water-containing organic solvent, and stirred at 40° C. for 2 days to investigate whether there was a crystal transformation.
A number parts of about 30 mg of the crystalline form I of fluvatinib (Form I) were respectively weighed and added to different glass bottles, and added with an appropriate amount of a single organic solvent or a mixture containing water (see Table 8) to form suspensions. The above-mentioned suspension samples were placed on magnetic stirrers (40° C.) to perform a stirring test. After being stirring at 40° C. for 2 days, the suspension samples were filtered. The filter cake samples were then dried overnight in a vacuum dry box (40° C.), and the dried samples were detected by XRPD (see Table 8 and FIG. 14).

[7] = Crystal transformation of fluvatinib mesylate crystalline forms stirred in ethanol, XRPD
Method: The crystalline form of the fluvatinib methanesulfonate was investigated on its stability in ethanol, to see whether there is crystal transformation.
About 0.15 g of the crystalline forms II (Form II), III (Form III), VI (Form VI) and VII (Form VII) of the fluvatinib mesylate were weighed and respectively added to reaction flasks containing ethanol, stirred magnetically for 2 days at room temperature, and filtered. The filter cakes were dried at 40-50° C. with spinning under reduced pressure. The obtained dried samples were detected by XRPD.

[8] = Solubility compared with lenvatinib; conditions: method or value not given
[9] = Stability of crystalline form III of fluvatinib mesylate in air (oxygen gas), oxidation; conditions: exposed to air
From the text: To investigate the stability of the crystalline form III of fluvatinib mesylate (Form III), Form III was exposed to air and contacted with oxygen.

[10] = High temperature suspension experiment (50° C.) in organic solvents, XRPD; conditions: 25 mg, 24 hours
Method: The crystalline form III of fluvatinib mesylate was subjected to high temperature suspension experiments (50° C.), to investigate whether the crystalline form III of fluvatinib mesylate undergoes crystal transformation in various type of common organic solvents, and whether it is stable. The crystalline form III of fluvatinib mesylate was suspended in 12 types of organic solvents (in 1 mL of solvent) and water as set forth in Table 10 at a temperature of 50° C. and an amount of about 25 mg for 24 hours. The solids after being suspended in the organic solvents were detected by XRPD.

[11] = listed as crystalline forms of fluvatinib
[12] = ethanol, stirred 2 days at room temperature
[13] = stirred in ethanol for 2-4 days

COc1cc2nccc(Oc3ccc(NC(=O)NC4CC4)c(Cl)c3F)c2cc1C(N)=O [crystalline form I of fluvatinib mesylate] [fluvatinib methanesulfonate]
crystal transformation under high temperature and high humidity conditions [1]: did not undergo crystal transformation | change of content of related impurities / related substances [2]: no apparent change | crystal transformation [2]: did not show crystal transformation | crystal transformation in single solvent [3]: maintained its form | hygroscopic weight gain ([4]; 25° C./80% RH): 1.3% | crystal transformation after DVS measurements ([4]; XRPD before and after DVS): did not undergo crystal transformation | crystal transformation during the process of preparing tablets [5]: neither the crystalline form I of fluvatinib mesylate nor the crystalline form III of fluvatinib mesylate undergoes crystal transformation | crystal transformation after the tablets being placed for 6 months [5]: no crystal transformation occurred

COc1cc2nccc(Oc3ccc(NC(=O)NC4CC4)c(Cl)c3F)c2cc1C(N)=O [crystalline form I of fluvatinib, 4-(2-fluoro-3-chloro-(cyclopropylaminocarbonyl)aminophenoxy)-7-methoxy-6-quinolinecarboxamide]
change of content of related impurities / related substances [2, 11]: no change | crystal transformation [2, 11]: no occurrence of crystal transformation | crystalline form after stirring for 2 days ([6]; THF 0.4 mL): Form I | crystalline form after stirring for 2 days ([6]; THF-water (1:1) 0.4 mL): Form I | crystalline form after stirring for 2 days ([6]; acetone 0.4 mL): Form I | crystalline form after stirring for 2 days ([6]; acetone-water (1:2) 0.4 mL): Form I | crystalline form after stirring for 2 days ([6]; ethanol 0.4 mL): Form I | crystalline form after stirring for 2 days ([6]; ethanol-water (3:1) 0.4 mL): Form I | crystalline form after stirring for 2 days ([6]; ethyl acetate 0.4 mL): Form I | crystalline form after stirring for 2 days ([6]; isopropanol 0.4 mL): Form I | crystalline form after stirring for 2 days ([6]; isopropanol-water (1:1) 0.4 mL): Form I | crystalline form after stirring for 2 days ([6]; methanol 0.4 mL): Form I | crystalline form after stirring for 2 days ([6]; methanol-water (3:1) 0.4 mL): Form I

COc1cc2nccc(Oc3ccc(NC(=O)NC4CC4)c(Cl)c3F)c2cc1C(N)=O [crystalline form II of fluvatinib mesylate] [fluvatinib methanesulfonate]
crystal transformation in ethanol [7, 12]: converted to Form III | crystal transformation in ethanol [7, 13]: transformed into the crystalline form III

COc1cc2nccc(Oc3ccc(NC(=O)NC4CC4)c(Cl)c3F)c2cc1C(N)=O [crystalline form III of fluvatinib mesylate] [fluvatinib methanesulfonate]
crystal transformation under high temperature and high humidity conditions [1]: did not undergo crystal transformation | change of content of related impurities / related substances [2]: no apparent change | crystal transformation [2]: did not show crystal transformation | hygroscopic weight ([4]; 25° C., 0-90% RH): 0.44% | solubility [8]: better than that of lenvatinib | Stability data in oxygen gas, oxidation ([9]; 20-30° C., 0 hour): 93.66% | Stability data in oxygen gas, oxidation ([9]; 20-30° C., 24 hours): 94.10% | Stability data in oxygen gas, oxidation ([9]; 60° C., 0 hour): 93.61% | Stability data in oxygen gas, oxidation ([9]; 60° C., 24 hours): 94.00% | crystal transformation in ethanol [7, 12]: did not undergo crystal transformation | crystal transformation in ethanol [7, 13]: did not undergo crystal transformation | XRD results ([10]; 1.4-dioxane 1 mL): Form III | XRD results ([10]; acetone 1 mL): Form III | XRD results ([10]; acetonitrile 1 mL): Form III | XRD results ([10]; cyclohexane 1 mL): Form III | XRD results ([10]; dichloromethane 1 mL): Form III | XRD results ([10]; ethanol 1 mL): Form III | XRD results ([10]; ethyl acetate 1 mL): Form III | XRD results ([10]; isopropanol 1 mL): Form III | XRD results ([10]; n-heptane 1 mL): Form III | XRD results ([10]; n-hexane 1 mL): Form III | XRD results ([10]; tetrahydrofuran 1 mL): Form III | crystal transformation during the process of preparing tablets [5]: neither the crystalline form I of fluvatinib mesylate nor the crystalline form III of fluvatinib mesylate undergoes crystal transformation | crystal transformation after the tablets being placed for 6 months [5]: no crystal transformation occurred

COc1cc2nccc(Oc3ccc(NC(=O)NC4CC4)c(Cl)c3F)c2cc1C(N)=O [crystalline form V of fluvatinib mesylate] [fluvatinib methanesulfonate]
crystal transformation under high temperature and high humidity conditions [1]: undergone crystal transformation

COc1cc2nccc(Oc3ccc(NC(=O)NC4CC4)c(Cl)c3F)c2cc1C(N)=O [crystalline form VI of fluvatinib mesylate] [fluvatinib methanesulfonate]
crystal transformation under high temperature and high humidity conditions [1]: undergone crystal transformation | crystal transformation in ethanol [7, 12]: converted to Form III | crystal transformation in ethanol [7, 13]: transformed into the crystalline form III

COc1cc2nccc(Oc3ccc(NC(=O)NC4CC4)c(Cl)c3F)c2cc1C(N)=O [crystalline form VII of fluvatinib mesylate] [fluvatinib methanesulfonate]
crystal transformation under high temperature and high humidity conditions [1]: undergone crystal transformation | crystal transformation in ethanol [7, 12]: converted to Form III | crystal transformation in ethanol [7, 13]: transformed into the crystalline form III
